Laboratory results: US12024510B2, “Pyrazolopyridine-diamides, their use as insecticide and processes for preparing the same” (PI INDUSTRIES LTD., priority 2017, dated 2024)

What was measured:
Assay type in all cases: in vivo
Helicoverpa armigera = Helicoverpa armigera diet incorporation method; conditions: third instar larvae, dead and moribund combined, 96 h after release
Procedure, shortened: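 500 ppm stock of compound milled with surfactant and zirconia beads to average particle size below 2 μm, dispersed in DM water, diluted as needed, and mixed into semi-synthetic diet at about 50° C. Single starved third-instar larvae per cell, held at 25° C., 70% RH; dead plus moribund larvae scored as percent mortality at 96 h.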

Spodoptera litura = Spodoptera litura diet incorporation method; conditions: third instar larvae, dead and moribund combined, 96 h after release
Procedure, shortened: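 Compound milled to <2 μm average particle size in surfactant, dispersed in water (500 ppm stock dispersion), then mixed into semi-synthetic diet at ~50° C. One starved third-instar larva per diet cell, 25° C, 70% RH; percent mortality (dead plus moribund) scored at 96 h.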

Plutella xylostella = assay: whole plant or invertebrate; conditions: foliar, cabbage leaf dip, second instar larvae, dead and moribund combined, 72 h after release
Procedure, shortened: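 Compounds milled with zirconia beads into surfactant dispersion (500 ppm stock), diluted in 0.01% Triton-X. Cabbage leaves dipped 10 s, shade-dried 20 min; one second-instar larva per cell, 25 °C, 70% RH. Mortality (dead plus moribund) scored at 72 h.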

Measured: mortality at 300 ppm

Cc1cc2ccnn2c(C(=O)NC(C)(C)C)c1NC(=O)c1cc(Cn2nnc(C(F)(F)F)n2)nn1-c1ncccc1Cl [Compound 170, N-(tert-butyl)-6-(1-(3-chloropyridin-2-yl)-3-((5-(trifluoromethyl)-2H-tetrazol-2-yl)methyl)-1H-pyrazole-5-carboxamido)-5-methylpyrazolo[1,5-a]pyridine-7-carboxamide]
> 70%: all assays above

CNC(=O)c1c(NC(=O)c2cc(Cn3nnc(C(F)(F)F)n3)nn2-c2ncccc2Cl)c(Cl)cc2ccnn12 [Compound 153, 5-chloro-6-(1-(3-chloropyridin-2-yl)-3-((5-(trifluoromethyl)-2H-tetrazol-2-yl)methyl)-1H-pyrazole-5-carboxamido)-N-methylpyrazolo[1,5-a]pyridine-7-carboxamide]
> 70%: all assays above

COc1cc(C(=O)Nc2c(Br)cc3ccnn3c2C(=O)NC(C)(C)C)n(-c2ncccc2Cl)n1 [Compound 119, 5-bromo-N-(tert-butyl)-6-(1-(3-chloropyridin-2-yl)-3-methoxy-1H-pyrazole-5-carboxamido)pyrazolo[1,5-a]pyridine-7-carboxamide]
> 70%: all assays above

CNC(=O)c1c(NC(=O)c2cc(C(F)(F)F)nn2-c2ncccc2Cl)c(C)cc2ccnn12 [Compound 63, 6-(1-(3-chloropyridin-2-yl)-3-(trifluoromethyl)-1H-pyrazole-5-carboxamido)-N,5-dimethylpyrazolo[1,5-a]pyridine-7-carboxamide]
> 70%: all assays above

Cc1cc2ccnn2c(C(=O)NC(C)(C)C)c1NC(=O)c1cc(OCC(F)(F)F)nn1-c1ncccc1Cl [Compound 19, N-(tert-butyl)-6-(1-(3-chloropyridin-2-yl)-3-(2,2,2-trifluoroethoxy)-1H-pyrazole-5-carboxamido)-5-methylpyrazolo[1,5-a]pyridine-7-carboxamide]
> 70%: all assays above

Cc1cc2ccnn2c(C(=O)NCC2CC2)c1NC(=O)c1cc(C(F)(F)F)nn1-c1ncccc1Cl [Compound 62, 6-(1-(3-chloropyridin-2-yl)-3-(trifluoromethyl)-1H-pyrazole-5-carboxamido)-N-(cyclopropylmethyl)-5-methylpyrazolo[1,5-a]pyridine-7-carboxamide]
> 70%: all assays above

CNC(=O)c1c(NC(=O)c2cc(OC)nn2-c2ncccc2Cl)c(Cl)cc2ccnn12 [Compound 135, 5-chloro-6-(1-(3-chloropyridin-2-yl)-3-methoxy-1H-pyrazole-5-carboxamido)-N-methylpyrazolo[1,5-a]pyridine-7-carboxamide]
> 70%: all assays above

CCCNC(=O)c1c(NC(=O)c2cc(Br)nn2-c2ncccc2Cl)c(Cl)cc2ccnn12 [Compound 151, 6-(3-bromo-1-(3-chloropyridin-2-yl)-1H-pyrazole-5-carboxamido)-5-chloro-N-propylpyrazolo[1,5-a]pyridine-7-carboxamide]
> 70%: all assays above

CNC(=O)c1c(NC(=O)c2cc(Br)nn2-c2ncccc2Cl)c(Cl)cc2ccnn12 [Compound 148, 6-(3-bromo-1-(3-chloropyridin-2-yl)-1H-pyrazole-5-carboxamido)-5-chloro-N-methylpyrazolo[1,5-a]pyridine-7-carboxamide]
> 70%: all assays above

O=C(Nc1c(Br)cc2ccnn2c1C(=O)NCC1CC1)c1cc(Br)nn1-c1ncccc1Cl [Compound 54, 5-bromo-6-(3-bromo-1-(3-chloropyridin-2-yl)-1H-pyrazole-5-carboxamido)-N-(cyclopropylmethyl)pyrazolo[1,5-a]pyridine-7-carboxamide]
> 70%: all assays above
